Measured values from PubChem BioAssay AID220 (DTP/NCI, 2004).
Values joined by “and” are separate entries in the source; they are usually repeats but may differ in a detail not shown here. Equal values may be shown once. Results filed as inconclusive are left out.

Tested on: CD8F1 mice, subcutaneous mammary adenocarcinoma, T/C%
Assay: NCI In Vivo Anticancer Drug Screen. Data for tumor model Mammary Adenocarcinoma CD8F1 (subcutaneous) in CD8F1
Details: higher = larger tumour
Procedure, shortened: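 Ratio of treated to vehicle-control outcome, based on either survival or tumor size, in mice bearing transplantable tumors given the test compound.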

COc1cccc2c1C(=O)c1c(O)c3c(c(O)c1C2=O)C[C@@](O)(/C(C)=N\NC(=O)CO)C[C@@H]3OC1CC(N)C(O)C(C)O1 (some centres undefined)
T/C (endpoint: mean tumor weight, dose: 1.0 mg/kg/injection, schedule: Q07DX006 (ip), vehicle: saline): 110 % of control
T/C (endpoint: mean tumor weight, dose: 2.0 mg/kg/injection, schedule: Q07DX006 (ip), vehicle: saline): 207 % of control
T/C (endpoint: mean tumor weight, dose: 4.0 mg/kg/injection, schedule: Q07DX006 (ip), vehicle: saline): 64 % of control
T/C (endpoint: median tumor weight (est.), dose: 1.0 mg/kg/injection, schedule: Q07DX005 (ip), vehicle: saline): 85 % of control
T/C (endpoint: median tumor weight (est.), dose: 2.0 mg/kg/injection, schedule: Q07DX005 (ip), vehicle: saline): 47 % of control
T/C (endpoint: median tumor weight (est.), dose: 4.0 mg/kg/injection, schedule: Q07DX005 (ip), vehicle: saline): 104 % of control

CCOC(=O)C1C2OC(=O)C(C(=O)C2CN(CCCl)CCCl)C1C1CC=C(CC2=CCC(C3C4C(=O)OC(C(CN(CCCl)CCCl)C4=O)C3C(=O)OCC)CC2)CC1 (centres undefined)
T/C (endpoint: median tumor weight (est.), dose: 12.5 mg/kg/injection, schedule: Q07DX005 (ip), vehicle: Klucel (hydroxypropylcellulose) (HPC)): 49 % of control
T/C (endpoint: median tumor weight (est.), dose: 25.0 mg/kg/injection, schedule: Q07DX005 (ip), vehicle: Klucel (hydroxypropylcellulose) (HPC)): 70 % of control
T/C (endpoint: median tumor weight (est.), dose: 50.0 mg/kg/injection, schedule: Q07DX005 (ip), vehicle: Klucel (hydroxypropylcellulose) (HPC)): 31 % of control
T/C (endpoint: median tumor weight (est.), dose: 100.0 mg/kg/injection, schedule: Q07DX005 (ip), vehicle: Klucel (hydroxypropylcellulose) (HPC)): 1 % of control

O=C1C=C(C2OC(CO)C(O)C2O)C(=O)N1 (centres undefined)
T/C (endpoint: median tumor weight (est.), dose: 1.56 mg/kg/injection, schedule: Q07DX005 (ip), vehicle: saline): 73 % of control
T/C (endpoint: median tumor weight (est.), dose: 6.25 mg/kg/injection, schedule: Q07DX005 (ip), vehicle: saline): 114 % of control

COC(=O)CC(N)C(=O)O (centres undefined)
T/C (endpoint: median tumor weight change, dose: 125.0 mg/kg/injection, schedule: Q01DX001 (ip), vehicle: saline): 60 % of control
T/C (endpoint: median tumor weight change, dose: 250.0 mg/kg/injection, schedule: Q01DX001 (ip), vehicle: saline): 61 % of control

CC[C@]1(O)C[C@H]2CN(CCc3c([nH]c4ccccc34)[C@@](C(=O)OC)(c3cc4c(cc3OC)N(C)[C@H]3[C@@](O)(C(=O)OC)[C@H](OC(C)=O)[C@]5(CC)C=CCN6CC[C@]43[C@@H]65)C2)C1
T/C (endpoint: median tumor weight (est.), dose: 0.25 mg/kg/injection, schedule: Q07DX005 (ip), vehicle: saline): 70 % of control and 71 % of control
T/C (endpoint: median tumor weight (est.), dose: 0.5 mg/kg/injection, schedule: Q07DX005 (ip), vehicle: saline): 63 % of control and 83 % of control and 84 % of control
T/C (endpoint: median tumor weight change, dose: 1.0 mg/kg/injection, schedule: Q01DX001 (ip), vehicle: saline): 81 % of control
T/C (endpoint: median tumor weight change, dose: 2.0 mg/kg/injection, schedule: Q01DX001 (ip), vehicle: saline): 56 % of control
T/C (endpoint: median tumor weight change, dose: 4.0 mg/kg/injection, schedule: Q01DX001 (ip), vehicle: saline): 28 % of control

CCCCNc1ccc2nnc(C)n2n1
T/C (endpoint: median tumor weight change, dose: 62.5 mg/kg/injection, schedule: Q01DX001 (ip), vehicle: DMSO): 111 % of control
T/C (endpoint: median tumor weight change, dose: 125.0 mg/kg/injection, schedule: Q01DX001 (ip), vehicle: DMSO): 118 % of control

OCC(O)C(O)C(O)C(O)CO (centres undefined)
T/C (endpoint: median tumor weight change, dose: 75.0 mg/kg/injection, schedule: Q01DX001 (ip), vehicle: saline): 20 % of control
T/C (endpoint: median tumor weight change, dose: 150.0 mg/kg/injection, schedule: Q01DX001 (ip), vehicle: saline): 40 % of control
T/C (endpoint: median tumor weight change, dose: 300.0 mg/kg/injection, schedule: Q01DX001 (ip), vehicle: saline): 39 % of control
T/C (endpoint: median tumor weight change, dose: 600.0 mg/kg/injection, schedule: Q01DX001 (ip), vehicle: saline): 32 % of control
T/C (endpoint: median tumor weight change, dose: 1200.0 mg/kg/injection, schedule: Q01DX001 (ip), vehicle: saline): 45 % of control

Cc1c2ccc3ccccc3c2c[n+]2ccccc12
T/C (endpoint: median tumor weight (est.), dose: 2.5 mg/kg/injection, schedule: Q07DX005 (ip), vehicle: Klucel (hydroxypropylcellulose) (HPC)): 84 % of control
T/C (endpoint: median tumor weight (est.), dose: 5.0 mg/kg/injection, schedule: Q07DX005 (ip), vehicle: Klucel (hydroxypropylcellulose) (HPC)): 86 % of control
T/C (endpoint: median tumor weight (est.), dose: 10.0 mg/kg/injection, schedule: Q07DX005 (ip), vehicle: Klucel (hydroxypropylcellulose) (HPC)): 83 % of control
T/C (endpoint: median tumor weight (est.), dose: 20.0 mg/kg/injection, schedule: Q07DX005 (ip), vehicle: Klucel (hydroxypropylcellulose) (HPC)): 57 % of control

Nc1nc(=S)c2ncn(C3CC(O)C(CO)O3)c2[nH]1 (centres undefined)
T/C (endpoint: median tumor weight (est.), dose: 10.0 mg/kg/injection, schedule: Q07DX005 (ip), vehicle: saline with Tween-80): 17 % of control and 37 % of control
T/C (endpoint: median tumor weight (est.), dose: 12.5 mg/kg/injection, schedule: Q07DX005 (ip), vehicle: suspension in saline): 81 % of control
T/C (endpoint: median tumor weight (est.), dose: 20.0 mg/kg/injection, schedule: Q07DX005 (ip), vehicle: saline with Tween-80): 9 % of control and 21 % of control
T/C (endpoint: median tumor weight (est.), dose: 25.0 mg/kg/injection, schedule: Q07DX005 (ip), vehicle: suspension in saline): 101 % of control
T/C (endpoint: median tumor weight (est.), dose: 40.0 mg/kg/injection, schedule: Q07DX005 (ip), vehicle: saline with Tween-80): 6 % of control and 7 % of control
T/C (endpoint: median tumor weight (est.), dose: 50.0 mg/kg/injection, schedule: Q07DX005 (ip), vehicle: suspension in saline): 72 % of control
T/C (endpoint: median tumor weight (est.), dose: 80.0 mg/kg/injection, schedule: Q07DX005 (ip), vehicle: saline with Tween-80): 2 % of control and 5 % of control
T/C (endpoint: median tumor weight (est.), dose: 200.0 mg/kg/injection, schedule: Q07DX005 (ip), vehicle: suspension in saline): 62 % of control

O=C1c2cccc3cc([N+](=O)[O-])cc(c23)C(=O)N1CCN1CCCC1
T/C (endpoint: median tumor weight change, dose: 7.0 mg/kg/injection, schedule: Q01DX001 (ip), vehicle: saline with Tween-80): 117 % of control
T/C (endpoint: median tumor weight change, dose: 14.06 mg/kg/injection, schedule: Q01DX001 (ip), vehicle: saline with Tween-80): 69 % of control
T/C (endpoint: median tumor weight change, dose: 28.12 mg/kg/injection, schedule: Q01DX001 (ip), vehicle: saline with Tween-80): 118 % of control
T/C (endpoint: median tumor weight change, dose: 31.25 mg/kg/injection, schedule: Q01DX001 (ip), vehicle: saline with Tween-80): 63 % of control
T/C (endpoint: median tumor weight change, dose: 56.25 mg/kg/injection, schedule: Q01DX001 (ip), vehicle: saline with Tween-80): 81 % of control
T/C (endpoint: median tumor weight change, dose: 62.5 mg/kg/injection, schedule: Q01DX001 (ip), vehicle: saline with Tween-80): 20 % of control
T/C (endpoint: median tumor weight change, dose: 112.5 mg/kg/injection, schedule: Q01DX001 (ip), vehicle: saline with Tween-80): 18 % of control

OCC1OC(n2cnc3c2nnn2ccnc32)C(O)C1O (centres undefined)
T/C (endpoint: mean tumor weight, dose: 37.5 mg/kg/injection, schedule: Q07DX005 (ip), vehicle: saline): 93 % of control and 94 % of control
T/C (endpoint: mean tumor weight, dose: 75.0 mg/kg/injection, schedule: Q07DX005 (ip), vehicle: saline): 202 % of control and 91 % of control
T/C (endpoint: mean tumor weight, dose: 150.0 mg/kg/injection, schedule: Q07DX005 (ip), vehicle: saline): 103 % of control and 118 % of control

CSc1ncnc2c1ncn2C1OC(CO)C(O)C1O (centres undefined)
T/C (endpoint: median tumor weight change, dose: 16.0 mg/kg/injection, schedule: Q01DX001 (ip), vehicle: saline + alcohol): 67 % of control
T/C (endpoint: median tumor weight change, dose: 31.0 mg/kg/injection, schedule: Q01DX001 (ip), vehicle: saline + alcohol): 82 % of control
T/C (endpoint: median tumor weight change, dose: 62.0 mg/kg/injection, schedule: Q01DX001 (ip), vehicle: saline + alcohol): 52 % of control
T/C (endpoint: median tumor weight change, dose: 62.5 mg/kg/injection, schedule: Q01DX001 (ip), vehicle: saline + alcohol): 79 % of control
T/C (endpoint: median tumor weight change, dose: 125.0 mg/kg/injection, schedule: Q01DX001 (ip), vehicle: saline + alcohol): 52 % of control and 70 % of control
T/C (endpoint: median tumor weight change, dose: 250.0 mg/kg/injection, schedule: Q01DX001 (ip), vehicle: saline + alcohol): 10 % of control and 12 % of control

CCc1ccccc1N1CCN(C(=O)c2cc(OC)c(OC)c(OC)c2)CC1
T/C (endpoint: median tumor weight (est.), dose: 12.5 mg/kg/injection, schedule: Q07DX003 (ip), vehicle: Klucel (hydroxypropylcellulose) (HPC)): 68 % of control
T/C (endpoint: median tumor weight (est.), dose: 12.5 mg/kg/injection, schedule: Q07DX004 (ip), vehicle: Klucel (hydroxypropylcellulose) (HPC)): 50 % of control
T/C (endpoint: median tumor weight (est.), dose: 50.0 mg/kg/injection, schedule: Q04DX005 (ip), vehicle: Klucel (hydroxypropylcellulose) (HPC)): 167 % of control and 269 % of control
T/C (endpoint: median tumor weight (est.), dose: 50.0 mg/kg/injection, schedule: Q07DX003 (ip), vehicle: Klucel (hydroxypropylcellulose) (HPC)): 182 % of control
T/C (endpoint: median tumor weight (est.), dose: 100.0 mg/kg/injection, schedule: Q04DX005 (ip), vehicle: Klucel (hydroxypropylcellulose) (HPC)): 152 % of control and 206 % of control
T/C (endpoint: median tumor weight (est.), dose: 100.0 mg/kg/injection, schedule: Q07DX003 (ip), vehicle: Klucel (hydroxypropylcellulose) (HPC)): 112 % of control
T/C (endpoint: median tumor weight (est.), dose: 100.0 mg/kg/injection, schedule: Q07DX004 (ip), vehicle: Klucel (hydroxypropylcellulose) (HPC)): 274 % of control
T/C (endpoint: median tumor weight (est.), dose: 200.0 mg/kg/injection, schedule: Q07DX003 (ip), vehicle: Klucel (hydroxypropylcellulose) (HPC)): 111 % of control
T/C (endpoint: median tumor weight (est.), dose: 400.0 mg/kg/injection, schedule: Q04DX005 (ip), vehicle: Klucel (hydroxypropylcellulose) (HPC)): 44 % of control
T/C (endpoint: median tumor weight (est.), dose: 400.0 mg/kg/injection, schedule: Q07DX003 (ip), vehicle: Klucel (hydroxypropylcellulose) (HPC)): 36 % of control
